Test results from publication PMC4671658, “Release of 50 new, drug-like compounds and their computational target predictions for open source anti-tubercular drug discovery” (PLoS ONE, 2015).
Converted amounts (≈) assume the structure as drawn.

System: clinical isolate of M.tuberculosis resistant to isoniazid

O=C(NCc1ccco1)N1CCN(Cc2ccc(Cl)s2)CC1 [TCMDC-143653]
MIC against clinical isolate resistant to isoniazid: 1.6 µM (≈ 0.544 µg/mL)
